Measured values: ChEMBL document CHEMBL5058649, “Data for DCP probe BAY 1816032” (2022)

What was measured:
[1] = target: Receptor tyrosine-protein kinase erbB-4 (Homo sapiens) (UniProt Q15303); experiment: ERBB4 DiscoveRx kinase panel; conditions: Compound concentration 1.0 uM
[2] = target: Serine/threonine-protein kinase MRCK gamma (Homo sapiens, UniProt Q6DT37); experiment: DMPK2 DiscoveRx kinase panel
[3] = target: Serine/threonine-protein kinase PAK 3 (Homo sapiens) (UniProt O75914); experiment: PAK3 DiscoveRx kinase panel; conditions: Compound concentration 1.0 uM
[4] = target: Serine/threonine-protein kinase pim-3 (Homo sapiens) (UniProt Q86V86); experiment: PIM3 DiscoveRx kinase panel; conditions: Compound concentration 1.0 uM
[5] = target: Tyrosine-protein kinase ABL1 (Homo sapiens) (UniProt P00519); experiment: ABL1-phosphorylated DiscoveRx kinase panel; conditions: Compound concentration 1.0 uM
[6] = target: Mitogen-activated protein kinase kinase kinase kinase 4 (Homo sapiens) (UniProt O95819); experiment: MAP4K4 DiscoveRx kinase panel; conditions: Compound concentration 1.0 uM
[7] = target: Hormonally up-regulated neu tumor-associated kinase (Homo sapiens) (UniProt P57058); experiment: HUNK DiscoveRx kinase panel; conditions: Compound concentration 1.0 uM
[8] = target: Casein kinase II subunit alpha' (Homo sapiens) (UniProt P19784); experiment: CSNK2A2 DiscoveRx kinase panel; conditions: Compound concentration 1.0 uM
[9] = target: Casein kinase I isoform alpha-like (Homo sapiens) (UniProt Q8N752); experiment: CSNK1A1L DiscoveRx kinase panel; conditions: Compound concentration 1.0 uM
[10] = target: Phosphatidylinositol 4-phosphate 3-kinase C2 domain-containing subunit beta (Homo sapiens) (UniProt O00750); experiment: PIK3C2B DiscoveRx kinase panel; conditions: Compound concentration 1.0 uM
Sequence of Phosphatidylinositol 4-phosphate 3-kinase C2 domain-containing subunit beta (Homo sapiens) (O00750 whole entry, the tested form may be a part): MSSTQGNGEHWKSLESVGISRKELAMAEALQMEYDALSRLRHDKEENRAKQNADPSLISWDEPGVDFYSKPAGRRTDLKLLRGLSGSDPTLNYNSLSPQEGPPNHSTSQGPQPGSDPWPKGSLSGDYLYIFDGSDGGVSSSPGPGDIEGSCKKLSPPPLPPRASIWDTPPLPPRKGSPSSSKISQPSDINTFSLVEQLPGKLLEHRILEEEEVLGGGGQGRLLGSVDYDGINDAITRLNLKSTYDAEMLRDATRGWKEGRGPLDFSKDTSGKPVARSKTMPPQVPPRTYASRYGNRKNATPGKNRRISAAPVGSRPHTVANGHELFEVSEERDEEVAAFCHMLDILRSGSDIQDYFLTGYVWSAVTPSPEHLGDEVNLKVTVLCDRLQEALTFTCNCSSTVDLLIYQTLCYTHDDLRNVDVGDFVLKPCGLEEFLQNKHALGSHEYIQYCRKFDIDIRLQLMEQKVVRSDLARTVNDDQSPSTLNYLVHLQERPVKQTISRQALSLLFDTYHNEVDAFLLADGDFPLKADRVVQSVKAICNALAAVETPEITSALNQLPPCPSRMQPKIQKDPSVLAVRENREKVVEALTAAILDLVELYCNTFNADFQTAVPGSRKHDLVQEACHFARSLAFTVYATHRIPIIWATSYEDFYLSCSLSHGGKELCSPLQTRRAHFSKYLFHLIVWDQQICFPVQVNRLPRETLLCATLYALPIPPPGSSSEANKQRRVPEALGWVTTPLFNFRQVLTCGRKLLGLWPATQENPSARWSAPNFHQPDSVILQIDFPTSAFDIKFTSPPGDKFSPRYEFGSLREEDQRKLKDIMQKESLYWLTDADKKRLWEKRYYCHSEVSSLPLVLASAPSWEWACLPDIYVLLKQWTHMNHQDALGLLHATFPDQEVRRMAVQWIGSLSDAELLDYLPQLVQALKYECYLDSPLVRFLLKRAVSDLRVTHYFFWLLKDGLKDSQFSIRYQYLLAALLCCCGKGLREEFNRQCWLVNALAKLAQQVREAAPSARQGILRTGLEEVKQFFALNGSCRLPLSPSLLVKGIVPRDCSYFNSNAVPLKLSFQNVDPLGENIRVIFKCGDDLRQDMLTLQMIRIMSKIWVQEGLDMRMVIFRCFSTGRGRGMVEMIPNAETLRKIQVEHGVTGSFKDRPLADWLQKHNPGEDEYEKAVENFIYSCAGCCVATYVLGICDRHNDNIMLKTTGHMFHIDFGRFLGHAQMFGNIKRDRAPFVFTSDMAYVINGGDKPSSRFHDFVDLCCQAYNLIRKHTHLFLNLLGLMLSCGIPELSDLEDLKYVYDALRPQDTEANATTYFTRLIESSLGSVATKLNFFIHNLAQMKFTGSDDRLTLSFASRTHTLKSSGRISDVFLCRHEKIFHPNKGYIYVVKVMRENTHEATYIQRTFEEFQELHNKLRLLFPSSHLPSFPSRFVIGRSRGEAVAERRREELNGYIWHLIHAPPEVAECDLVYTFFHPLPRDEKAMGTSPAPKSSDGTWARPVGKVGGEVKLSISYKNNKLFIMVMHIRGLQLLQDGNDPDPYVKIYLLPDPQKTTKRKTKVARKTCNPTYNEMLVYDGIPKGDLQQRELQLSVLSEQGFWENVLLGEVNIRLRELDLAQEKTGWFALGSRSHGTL

[11] = target: Ribosomal protein S6 kinase alpha-5 (Homo sapiens) (UniProt O75582); experiment: RPS6KA5(Kin.Dom.2-C-terminal) DiscoveRx kinase panel; conditions: Compound concentration 1.0 uM
[12] = target: Serine/threonine-protein kinase PLK2 (Homo sapiens) (UniProt Q9NYY3); experiment: PLK2 DiscoveRx kinase panel; conditions: Compound concentration 1.0 uM
[13] = target: Serine/threonine-protein kinase 25 (Homo sapiens) (UniProt O00506); experiment: YSK1 DiscoveRx kinase panel; conditions: Compound concentration 1.0 uM
[14] = target: Protein-tyrosine kinase 2-beta (Homo sapiens) (UniProt Q14289); experiment: PYK2 DiscoveRx kinase panel; conditions: Compound concentration 1.0 uM
[15] = target: Glycogen synthase kinase-3 alpha (Homo sapiens, UniProt P49840); experiment: GSK3A DiscoveRx kinase panel
[16] = target: Tyrosine-protein kinase Tec (Homo sapiens) (UniProt P42680); experiment: TEC DiscoveRx kinase panel; conditions: Compound concentration 1.0 uM
[17] = target: Activin receptor type-2A (Homo sapiens) (UniProt P27037); experiment: ACVR2A DiscoveRx kinase panel; conditions: Compound concentration 1.0 uM
[18] = target: Homeodomain-interacting protein kinase 4 (Homo sapiens) (UniProt Q8NE63); experiment: HIPK4 DiscoveRx kinase panel; conditions: Compound concentration 1.0 uM
[19] = target: Calcium/calmodulin-dependent protein kinase kinase 2 (Homo sapiens) (UniProt Q96RR4); experiment: CAMKK2 DiscoveRx kinase panel; conditions: Compound concentration 1.0 uM
[20] = target: Serine/threonine-protein kinase ULK2 (Homo sapiens) (UniProt Q8IYT8); experiment: ULK2 DiscoveRx kinase panel; conditions: Compound concentration 1.0 uM
[21] = target: Glutamate NMDA receptor (Rattus norvegicus) (UniProt P35439+Q00959+Q00960+Q00961+Q62645+Q8VHN2+Q9R1M7); conditions: Compound concentration 10.0 uM
[22] = target: Tyrosine-protein kinase SYK (Homo sapiens) (UniProt P43405); experiment: SYK DiscoveRx kinase panel; conditions: Compound concentration 1.0 uM
[23] = target: Mitogen-activated protein kinase kinase kinase kinase 2 (Homo sapiens) (UniProt Q12851); experiment: MAP4K2 DiscoveRx kinase panel; conditions: Compound concentration 1.0 uM
[24] = target: Dual specificity mitogen-activated protein kinase kinase 2 (Homo sapiens) (UniProt P36507); experiment: MEK2 DiscoveRx kinase panel; conditions: Compound concentration 1.0 uM
[25] = target: AP2-associated protein kinase 1 (Homo sapiens) (UniProt Q2M2I8); experiment: AAK1 DiscoveRx kinase panel; conditions: Compound concentration 1.0 uM
[26] = target: Mu-type opioid receptor (Homo sapiens) (UniProt P35372); conditions: Compound concentration 10.0 uM
[27] = target: 5-hydroxytryptamine receptor 2B (Homo sapiens) (UniProt P41595); conditions: Compound concentration 10.0 uM
Sequence of 5-hydroxytryptamine receptor 2B (Homo sapiens) (P41595 whole entry): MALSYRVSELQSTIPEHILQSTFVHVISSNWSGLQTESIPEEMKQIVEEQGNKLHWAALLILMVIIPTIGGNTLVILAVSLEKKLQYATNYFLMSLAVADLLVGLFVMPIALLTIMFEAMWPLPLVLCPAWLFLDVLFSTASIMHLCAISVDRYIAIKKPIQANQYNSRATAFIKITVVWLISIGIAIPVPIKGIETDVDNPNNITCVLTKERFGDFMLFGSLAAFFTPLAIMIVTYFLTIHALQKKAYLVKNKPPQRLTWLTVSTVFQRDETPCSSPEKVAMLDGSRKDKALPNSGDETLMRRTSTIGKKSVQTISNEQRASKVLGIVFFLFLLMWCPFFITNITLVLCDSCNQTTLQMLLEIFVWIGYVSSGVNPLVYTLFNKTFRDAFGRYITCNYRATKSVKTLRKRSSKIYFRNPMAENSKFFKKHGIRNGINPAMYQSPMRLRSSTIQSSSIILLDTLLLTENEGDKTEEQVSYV

[28] = target: Serine/threonine-protein kinase NIM1 (Homo sapiens) (UniProt Q8IY84); experiment: NIM1 DiscoveRx kinase panel; conditions: Compound concentration 1.0 uM
[29] = target: Serine/threonine-protein kinase Nek3 (Homo sapiens) (UniProt P51956); experiment: NEK3 DiscoveRx kinase panel; conditions: Compound concentration 1.0 uM
[30] = target: Serine/threonine-protein kinase D1 (Homo sapiens) (UniProt Q15139); experiment: PRKD1 DiscoveRx kinase panel; conditions: Compound concentration 1.0 uM
[31] = target: 5-hydroxytryptamine receptor 2A (Homo sapiens) (UniProt P28223); experiment: Serotonin (5-Hydroxytryptamine) 5-HT2A Eurofins-Panlabs radioligand binding assay; conditions: Compound concentration 10.0 uM
Sequence of 5-hydroxytryptamine receptor 2A (Homo sapiens) (P28223 whole entry): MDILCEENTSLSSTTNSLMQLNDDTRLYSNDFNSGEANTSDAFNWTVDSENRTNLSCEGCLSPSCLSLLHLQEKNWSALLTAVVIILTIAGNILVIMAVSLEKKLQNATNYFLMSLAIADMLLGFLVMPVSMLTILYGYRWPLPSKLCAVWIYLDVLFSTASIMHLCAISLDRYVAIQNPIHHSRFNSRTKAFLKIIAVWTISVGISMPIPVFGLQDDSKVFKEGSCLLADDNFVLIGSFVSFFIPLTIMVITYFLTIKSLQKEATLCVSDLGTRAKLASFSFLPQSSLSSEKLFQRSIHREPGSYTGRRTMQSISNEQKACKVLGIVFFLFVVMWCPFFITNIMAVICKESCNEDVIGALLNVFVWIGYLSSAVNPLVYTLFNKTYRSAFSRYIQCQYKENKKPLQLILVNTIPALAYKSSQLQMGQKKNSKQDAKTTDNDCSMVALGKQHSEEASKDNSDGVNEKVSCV

[32] = target: Tyrosine-protein kinase ABL2 (Homo sapiens) (UniProt P42684); experiment: ABL2 DiscoveRx kinase panel; conditions: Compound concentration 1.0 uM
[33] = target: Serine/threonine-protein kinase PRP4 homolog (Homo sapiens) (UniProt Q13523); experiment: PRP4 DiscoveRx kinase panel; conditions: Compound concentration 1.0 uM
[34] = target: Phosphatidylinositol 4-phosphate 5-kinase type-1 gamma (Homo sapiens) (UniProt O60331); experiment: PIP5K1C DiscoveRx kinase panel; conditions: Compound concentration 1.0 uM
[35] = target: Mitogen-activated protein kinase 13 (Homo sapiens) (UniProt O15264); experiment: p38-delta DiscoveRx kinase panel; conditions: Compound concentration 1.0 uM
[36] = target: Calcium/calmodulin-dependent protein kinase type 1G (Homo sapiens) (UniProt Q96NX5); experiment: CAMK1G DiscoveRx kinase panel; conditions: Compound concentration 1.0 uM
Sequence of Calcium/calmodulin-dependent protein kinase type 1G (Homo sapiens) (Q96NX5 whole entry): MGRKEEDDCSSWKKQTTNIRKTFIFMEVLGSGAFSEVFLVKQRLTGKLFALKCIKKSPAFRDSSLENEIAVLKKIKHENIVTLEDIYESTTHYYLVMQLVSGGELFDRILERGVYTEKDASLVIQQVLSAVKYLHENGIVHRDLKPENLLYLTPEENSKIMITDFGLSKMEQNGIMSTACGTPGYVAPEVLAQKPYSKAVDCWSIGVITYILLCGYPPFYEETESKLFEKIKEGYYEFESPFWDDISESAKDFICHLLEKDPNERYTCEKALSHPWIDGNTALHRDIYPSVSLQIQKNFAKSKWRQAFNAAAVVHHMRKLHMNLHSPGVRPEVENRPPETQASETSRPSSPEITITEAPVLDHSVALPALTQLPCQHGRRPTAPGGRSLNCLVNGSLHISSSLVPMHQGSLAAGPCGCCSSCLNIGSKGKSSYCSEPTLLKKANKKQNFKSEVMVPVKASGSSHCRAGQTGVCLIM

[37] = target: Serine/threonine-protein kinase PLK4 (Homo sapiens) (UniProt O00444); experiment: PLK4 DiscoveRx kinase panel; conditions: Compound concentration 1.0 uM
[38] = target: Serine/threonine-protein kinase TAO1 (Homo sapiens) (UniProt Q7L7X3); experiment: TAOK1 DiscoveRx kinase panel; conditions: Compound concentration 1.0 uM
[39] = target: Calcium/calmodulin-dependent protein kinase type 1B (Homo sapiens) (UniProt Q6P2M8); experiment: CAMK1B DiscoveRx kinase panel; conditions: Compound concentration 1.0 uM
Sequence of Calcium/calmodulin-dependent protein kinase type 1B (Homo sapiens) (Q6P2M8 whole entry): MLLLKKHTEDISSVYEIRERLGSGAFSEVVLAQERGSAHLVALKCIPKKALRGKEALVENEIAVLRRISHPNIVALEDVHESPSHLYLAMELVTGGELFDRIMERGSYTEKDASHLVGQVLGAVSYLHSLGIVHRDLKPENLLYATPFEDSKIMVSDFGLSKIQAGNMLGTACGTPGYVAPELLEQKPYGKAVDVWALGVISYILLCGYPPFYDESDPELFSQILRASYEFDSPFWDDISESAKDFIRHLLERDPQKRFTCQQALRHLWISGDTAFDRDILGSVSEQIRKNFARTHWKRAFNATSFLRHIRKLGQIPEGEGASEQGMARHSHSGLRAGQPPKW

[40] = target: Ribosomal protein S6 kinase alpha-4 (Homo sapiens) (UniProt O75676); experiment: RPS6KA4(Kin.Dom.2-C-terminal) DiscoveRx kinase panel; conditions: Compound concentration 1.0 uM
[41] = target: ALK tyrosine kinase receptor (Homo sapiens) (UniProt Q9UM73); experiment: ALK DiscoveRx kinase panel; conditions: Compound concentration 1.0 uM
[42] = target: Tyrosine-protein kinase ZAP-70 (Homo sapiens) (UniProt P43403); experiment: ZAP70 DiscoveRx kinase panel; conditions: Compound concentration 1.0 uM
[43] = target: MAP kinase-interacting serine/threonine-protein kinase 2 (Homo sapiens) (UniProt Q9HBH9); experiment: MKNK2 DiscoveRx kinase panel; conditions: Compound concentration 1.0 uM
[44] = target: Serine/threonine-protein kinase/endoribonuclease IRE1 (Homo sapiens) (UniProt O75460); experiment: ERN1 DiscoveRx kinase panel; conditions: Compound concentration 1.0 uM
[45] = target: Phosphatidylinositol 4-phosphate 5-kinase type-1 alpha (Homo sapiens) (UniProt Q99755); experiment: PIP5K1A DiscoveRx kinase panel; conditions: Compound concentration 1.0 uM
[46] = target: Homeodomain-interacting protein kinase 1 (Homo sapiens) (UniProt Q86Z02); experiment: HIPK1 DiscoveRx kinase panel; conditions: Compound concentration 1.0 uM
[47] = target: Dual specificity tyrosine-phosphorylation-regulated kinase 2 (Homo sapiens) (UniProt Q92630); experiment: DYRK2 DiscoveRx kinase panel; conditions: Compound concentration 1.0 uM
[48] = target: Receptor tyrosine-protein kinase erbB-3 (Homo sapiens) (UniProt P21860); experiment: ERBB3 DiscoveRx kinase panel; conditions: Compound concentration 1.0 uM

Sequence of Serine/threonine-protein kinase MRCK gamma (Q6DT37 whole entry): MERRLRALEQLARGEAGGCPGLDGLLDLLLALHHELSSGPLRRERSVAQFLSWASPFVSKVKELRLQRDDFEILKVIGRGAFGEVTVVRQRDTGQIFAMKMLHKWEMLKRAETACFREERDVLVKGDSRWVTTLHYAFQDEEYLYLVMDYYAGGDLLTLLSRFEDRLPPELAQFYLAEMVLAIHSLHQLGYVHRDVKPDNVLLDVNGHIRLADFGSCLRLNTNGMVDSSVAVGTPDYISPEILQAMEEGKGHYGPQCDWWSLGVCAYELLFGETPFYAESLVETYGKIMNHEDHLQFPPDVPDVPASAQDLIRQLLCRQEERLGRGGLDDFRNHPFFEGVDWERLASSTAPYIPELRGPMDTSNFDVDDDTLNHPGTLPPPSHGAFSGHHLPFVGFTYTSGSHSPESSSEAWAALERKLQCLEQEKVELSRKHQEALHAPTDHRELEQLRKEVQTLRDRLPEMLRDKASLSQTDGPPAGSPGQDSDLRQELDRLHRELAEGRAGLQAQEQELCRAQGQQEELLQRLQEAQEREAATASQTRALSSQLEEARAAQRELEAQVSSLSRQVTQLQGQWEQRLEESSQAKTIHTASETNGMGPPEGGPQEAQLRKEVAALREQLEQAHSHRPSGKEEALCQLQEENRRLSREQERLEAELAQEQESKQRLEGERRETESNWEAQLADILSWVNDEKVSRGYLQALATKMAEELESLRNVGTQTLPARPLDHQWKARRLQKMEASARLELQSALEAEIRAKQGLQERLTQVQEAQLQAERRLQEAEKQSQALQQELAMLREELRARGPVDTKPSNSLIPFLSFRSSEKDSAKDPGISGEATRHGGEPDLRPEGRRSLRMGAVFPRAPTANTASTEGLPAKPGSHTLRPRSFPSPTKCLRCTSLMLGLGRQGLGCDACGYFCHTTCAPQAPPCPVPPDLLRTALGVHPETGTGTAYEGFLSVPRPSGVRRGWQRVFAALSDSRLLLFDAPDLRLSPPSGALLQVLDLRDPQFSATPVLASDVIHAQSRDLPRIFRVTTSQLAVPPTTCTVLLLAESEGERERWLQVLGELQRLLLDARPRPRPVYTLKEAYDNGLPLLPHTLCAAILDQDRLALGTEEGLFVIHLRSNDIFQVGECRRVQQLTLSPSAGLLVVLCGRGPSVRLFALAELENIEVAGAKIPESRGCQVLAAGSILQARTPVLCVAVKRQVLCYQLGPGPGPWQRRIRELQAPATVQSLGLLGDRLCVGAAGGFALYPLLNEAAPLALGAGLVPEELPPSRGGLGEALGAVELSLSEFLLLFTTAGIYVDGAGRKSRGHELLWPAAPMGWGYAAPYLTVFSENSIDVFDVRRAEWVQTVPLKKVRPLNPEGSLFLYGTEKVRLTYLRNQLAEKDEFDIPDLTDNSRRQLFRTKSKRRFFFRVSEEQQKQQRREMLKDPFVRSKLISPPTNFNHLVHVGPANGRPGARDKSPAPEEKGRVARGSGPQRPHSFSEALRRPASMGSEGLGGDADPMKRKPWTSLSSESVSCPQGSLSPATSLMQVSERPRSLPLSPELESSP

## COc1cnccc1Nc1nc(-c2nn(Cc3c(F)cc(OCCO)cc3F)c3ccccc23)ncc1OC
[1]
  residual activity: 100%
[2]
  Kd: 850 nM
[2]; Compound concentration 1.0 uM
  residual activity: 22%
[3]
  residual activity: 81%
[4]
  residual activity: 100%
[5]
  residual activity: 94%
[6]
  residual activity: 62%
[7]
  residual activity: 99%
[8]
  residual activity: 48%
[9]
  residual activity: 89%
[10]
  residual activity: 100%
[11]
  residual activity: 100%
[12]
  residual activity: 100%
[13]
  residual activity: 76%
[14]
  residual activity: 95%
[15]
  Kd: > 30000 nM
[15]; Compound concentration 1.0 uM
  residual activity: 26%
[16]
  residual activity: 100%
[17]
  residual activity: 100%
[18]
  residual activity: 90%
[19]
  residual activity: 100%
[20]
  residual activity: 100%
[21]
  inhibition: -2%
[22]
  residual activity: 100%
[23]
  residual activity: 100%
[24]
  residual activity: 94%
[25]
  residual activity: 100%
[26]
  inhibition: -4.25%
[27]
  inhibition: 1.96%
[28]
  residual activity: 88%
[29]
  residual activity: 100%
[30]
  residual activity: 100%
[31]
  inhibition: 22%
[32]
  residual activity: 100%
[33]
  residual activity: 96%
[34]
  residual activity: 100%
[35]
  residual activity: 99%
[36]
  residual activity: 99%
[37]
  residual activity: 100%
[38]
  residual activity: 100%
[39]
  residual activity: 95%
[40]
  residual activity: 100%
[41]
  residual activity: 100%
[42]
  residual activity: 100%
[43]
  residual activity: 100%
[44]
  residual activity: 100%
[45]
  residual activity: 83%
[46]
  residual activity: 94%
[47]
  residual activity: 100%
[48]
  residual activity: 70%
